Experimental data reported in patent publication US5314920A, “Ethynyl-alanine aryl/alkylsulfonyl-terminated amino-diol compounds for treatment of hypertension” (G. D. Searle & Co., priority 1992, dated 1994).
Non-standard residues stand in square brackets, D forms with d. Residues, ends and D or L forms follow the SMILES beside them. *: point of attachment. Sta = CC(C)C[C@H](N)[C@@H](O)CC(=O)O; Isovaleryl = CC(C)CC(=O)*

Legend:
human renin = biological target: T1, human renin (Homo sapiens, UniProt P00797); assay: Human Renin Inhibition in vitro; assay type: biochemical; details: pH 7.4, 37° C., two hours, human plasma, angiotensin I by radioimmunoassay
T1 construct: purchased National Institute for Biological Standards, London
T1 sequence (P00797 67-406): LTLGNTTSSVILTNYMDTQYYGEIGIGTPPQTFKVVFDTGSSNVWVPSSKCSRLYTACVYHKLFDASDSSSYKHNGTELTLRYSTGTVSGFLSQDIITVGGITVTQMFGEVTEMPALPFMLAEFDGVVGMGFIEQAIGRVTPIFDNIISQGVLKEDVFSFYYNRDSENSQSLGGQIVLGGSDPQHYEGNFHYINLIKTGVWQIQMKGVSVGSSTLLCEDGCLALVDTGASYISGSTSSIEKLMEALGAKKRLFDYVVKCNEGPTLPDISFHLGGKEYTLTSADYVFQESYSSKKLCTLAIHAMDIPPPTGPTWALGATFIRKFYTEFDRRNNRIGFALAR
Description: Compounds of Formula I were evaluated as inhibitors of human renin in an vitro assay, as follows: This human renin inhibition test has been previously described in detail [Papaioannou et al., Clinical and Experimental Hypertension, A7 (9), 1243-1257 (1985)]. Human renin was obtained from the National Institute for Biological Standards, London. An incubation mixture was prepared containing the following components: in a total volume of 0.25 mL: 100 mM Tris-acetate buffer at pH 7.4, 25×10^-6 Goldblatt units of renin, 0.05 mL of plasma from human volunteers taking oral contraceptives, 6.0 mM Na-EDTA, 2.4 mM phenylmethyl sulfonyl fluoride, 1.5 mM 8-hydroxyquinoline, 0.4 mg/mL bovine serum albumin (BSA), and 0.024 mg/mL neomycin sulfate. This mixture was incubated for two hours at 37° C. in the presence or absence of renin inhibitors. The produced angiotensin I was determined by radioimmunoassay (New England Nuclear kit). Test compounds to be assayed were dissolved in DMSO and diluted with 100 mM Tris-acetate buffer at pH 7.4 containing 0.5% BSA to the appropriate concentration. The final concentration of organic solvent in the reaction mixture was less than 1%. Control incubations at 37° C. were used to correct for effects of organic solvent on renin activity.

hog renin = details: after the injection of hog renin into nephrectomized rats; Gross et al, Science, 175, 656 (1971); cited from earlier work
pepsin = details: Umezawa et al, J. Antibiot. (Tokyo), 23, 259-262 (1970); cited from earlier work
cathepsin D = details: Umezawa et al, J. Antibiot. (Tokyo), 23, 259-262 (1970); cited from earlier work
renin = details: Umezawa et al, J. Antibiot. (Tokyo), 23, 259-262 (1970); cited from earlier work

With C#CC[C@H](NC(=O)CCS(=O)(=O)c1ccccc1)C(=O)N[C@@H](CC1CCCCC1)[C@@H](O)[C@@H](O)CC(C)C [Example 3, N-[1S,1R*(cyclohexylmethyl)-2S*,3R*-dihydroxy-5-methylhexyl]-2R*-[[1-oxo-3-[phenylsulfonyl]propyl]amino]-4-pentynamide] the inhibition at 0.1 µM (human renin; @ 100 nM) was 34%.

C#CC[C@H](NC(=O)[C@H](Cc1ccccc1)CS(=O)(=O)C(C)(C)C)C(=O)N[C@@H](CC1CCCCC1)[C@@H](O)[C@@H](O)CC(C)C [Example 2, N-[[1R*-[[1S,1R*(cyclohexylmethyl)-2S*,3R*-dihydroxy-5-methylhexyl]amino]carbonyl]-3-butynyl]-αR*-[[(1,1-dimethylethyl)sulfonyl]methyl]benzenepropanamide] gave an IC50 (human renin) of 0.17 nM.

For CC(C)CC(=O)N[C@H](C(=O)N[C@H](C(=O)N[C@@H](CC(C)C)[C@@H](O)CC(=O)N[C@@H](C)C(=O)N[C@@H](CC(C)C)[C@@H](O)CC(=O)O)C(C)C)C(C)C [pepstatin] (Isovaleryl-VV[Sta]A[Sta]-OH), the “blood pressure in vivo” value (hog renin) is listed as “reduce blood pressure”, the inhibitor of pepsin (pepsin) is listed as “inhibitor” and the “inhibitor of cathepsin D” value (cathepsin D) is listed as “inhibitor”. For the same compound, the inhibitor of renin (renin) was “inhibitor”.

C#CC[C@H](NC(=O)C(Cc1ccccc1)CS(=O)(=O)C(C)(C)C)C(=O)N[C@@H](CC1CCCCC1)[C@@H](O)[C@@H](O)CC(C)C (stereo partly drawn) [Example 1, N-[[1R*-[[1S,1R*(cyclohexylmethyl)-2S*,3R*-dihydroxy-5-methylhexyl]amino]carbonyl]-3-butynyl]-α-[[(1,1-dimethylethyl)sulfonyl]methyl]benzenepropanamide] gave an IC50 (human renin) of 0.23 nM.
